In BindingDB's records for doi:10.1021/jm0613469 (Uppsala University, 2007):
Residues, ends and D or L forms follow the SMILES beside them.

Molecular target: Type-2 angiotensin II receptor (Sus scrofa)
Experiment: Displacement of [125I]Ang2 from AT2 receptor in pig uterus myometrial membrane

Row | Ki | Compound
1 | 0.0166 µM | CC[C@@H](C)[C@H](NC(=O)c1cccc(Cn2ccnc2)c1)C(=O)O [(2S,3R)-2-(3-((1H-imidazol-1-yl)methyl)benzamido)-3-methylpentanoic acid]
2 | > 10 µM | CC[C@@H](C)[C@H](NC(=O)[C@@H]1CCCN1C(=O)c1cccc(Cc2cnc[nH]2)c1)C(=O)O [(2S,3R)-2-((S)-1-(3-((1H-imidazol-5-yl)methyl)benzoyl)pyrrolidine-2-carboxamido)-3-methylpentanoic acid]
3 | > 10 µM | CC[C@@H](C)[C@H](NC(=O)[C@@H]1CCCN1C(=O)c1cccc(Cn2ccnc2)c1)C(=O)O [(2S,3R)-2-((S)-1-(3-((1H-imidazol-1-yl)methyl)benzoyl)pyrrolidine-2-carboxamido)-3-methylpentanoic acid]

Further lines, the compound ahead of its results:

Row | Compound | Ki
4 | O=C(N[C@@H](Cc1ccccc1)C(=O)O)c1cccc(Cn2ccnc2)c1 [(S)-2-(3-((1H-imidazol-1-yl)methyl)benzamido)-3-phenylpropanoic acid] | 0.0375 µM
5 | O=C(O)[C@H](Cc1ccccc1)NC(=O)[C@@H]1CCCN1C(=O)c1cccc(Cn2ccnc2)c1 [(S)-2-((S)-1-(3-((1H-imidazol-1-yl)methyl)benzoyl)pyrrolidine-2-carboxamido)-3-phenylpropanoic acid] | > 10 µM
6 | N[C@@H](Cc1cnc[nH]1)C(=O)N1CCC[C@H]1C(=O)N[C@@H](Cc1ccccc1)C(=O)O [(S)-2-((S)-1-((S)-2-amino-3-(1H-imidazol-5-yl)propanoyl)pyrrolidine-2-carboxamido)-3-phenylpropanoic acid] (H-His-Pro-Phe-OH) | > 10 µM
7 | CC[C@H](C)[C@H](NC(=O)[C@@H]1CCCN1C(=O)[C@@H](N)Cc1cnc[nH]1)C(=O)O [(2S,3R)-2-((S)-1-((S)-2-amino-3-(1H-imidazol-5-yl)propanoyl)pyrrolidine-2-carboxamido)-3-methylpentanoic acid] (H-His-Pro-Ile-OH) | > 10 µM
8 | O=C(O)[C@H](Cc1ccccc1)NC(=O)[C@@H]1CCCN1C(=O)c1cccc(Cc2cnc[nH]2)c1 [(S)-2-((S)-1-(3-((1H-imidazol-5-yl)methyl)benzoyl)pyrrolidine-2-carboxamido)-3-phenylpropanoic acid] | > 10 µM
9 | CC(=O)N[C@@H](Cc1cnc[nH]1)C(=O)N1CCC[C@H]1C(=O)N[C@@H](Cc1ccccc1)C(=O)O [(S)-2-((S)-1-((S)-2-acetamido-3-(1H-imidazol-5-yl)propanoyl)pyrrolidine-2-carboxamido)-3-phenylpropanoic acid] (Ac-His-Pro-Phe-OH) | > 10 µM
